Experimental data from patent US20090252687A1, “ASYMMETRIC FLUORO-SUBSTITUTED POLYMETHINE DYES” (priority 2006, published 2009).

Assay: Photostability of the fluorescence signal
Format: physicochemical
Conditions: 1:1 methanol:water; Karl Storz Xenon 175 light source at 100% intensity for 30 min; fraction of dark control
Procedure: In a further example the photostability of the fluorescence signal was measured. The photostability of Compound 3 (the fluorinated Cy3F pyrylium of Example 19) was studied in comparison with a non-fluorinated analogue, Cy3 pyrylium (Compound C)
The dyes were dissolved in a 1:1 mixture of methanol:water to give an absorbance reading of 1Au at the dyes lambda max and then diluted 20 times for fluorescence measurements. The samples were exposed to light with a Karl Storz Xenon 175 light source at 100% intensity for 30 min. The cuvette was kept in a water bath while exposed to light, to avoid heating. Fluorescence measurements were made on Cary Eclipse (Varian) fluorescence spectrophotometer 1 cm cuvette, ex/em slit 5 nm

## CN(C)c1ccc2c(c1)OC(C(C)(C)C)=C/C2=C\C=C\C1=[N+](CCCCCC(=O)O)c2c(F)c(F)c(F)c(F)c2C1(C)CCCCS(=O)(=O)[O-] (centres unmarked) [Compound 3, 4-[2-{(1E,3E)-3-[2-tert-butyl-7-(dimethylamino)-4H-chromen-4-ylidene]prop-1-enyl}-1-(5-carboxypentyl)-4,5,6,7-tetrafluoro-3-methyl-3H-indolium-3-yl]butane-1-sulfonate]
  max fluorescence intensity relative to the dark control (photostability): 0.94

## CN(C)c1ccc2c(c1)OC(C(C)(C)C)=C/C2=C\C=C\C1=[N+](CCCCCC(=O)O)c2ccc(S(=O)(=O)[O-])cc2C1(C)C [Compound C]
  max fluorescence intensity relative to the dark control (photostability): 0.79
